According to PMC10349806 (Nature Communications, 2023):
Several values for one entry are separate records, joined by “and”; a condition that tells them apart may be missing. Identical values can stand only once.

Key:
[1] = target: T1, PfCRT variant E207L (Plasmodium falciparum, UniProt Q9N623, A220S/E207L/I356T/K76T/M74I/N326S/N75E/Q271E/R371I); assay: CQ uptake assay, oocytes expressing E207L; format: cell-based
T1 construct: expressed in transfected cells; host or cells: Xenopus laevis oocytes injected with in vitro transcribed RNA (pSP64T)
T1 sequence (Q9N623 1-424 M74I/N75E/K76T/E207L/A220S/Q271E/N326S/I356T/R371I): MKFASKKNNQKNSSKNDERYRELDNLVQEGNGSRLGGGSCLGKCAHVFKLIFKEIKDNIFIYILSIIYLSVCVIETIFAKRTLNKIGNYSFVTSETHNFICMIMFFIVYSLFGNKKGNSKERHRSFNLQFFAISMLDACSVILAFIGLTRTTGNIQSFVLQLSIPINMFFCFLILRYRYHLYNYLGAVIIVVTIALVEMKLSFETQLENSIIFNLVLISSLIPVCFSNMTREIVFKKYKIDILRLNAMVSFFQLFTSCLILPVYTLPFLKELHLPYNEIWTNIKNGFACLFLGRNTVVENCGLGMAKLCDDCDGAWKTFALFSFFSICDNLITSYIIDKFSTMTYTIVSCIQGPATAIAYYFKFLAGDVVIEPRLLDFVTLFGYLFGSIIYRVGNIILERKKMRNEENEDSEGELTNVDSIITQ
Description: (§1) Site-directed mutagenesis of PfCRT^Dd2 was performed as described using the megaprimer method with overlap extension[21],[54]. The primer pairs used are listed in Supplementary Table 6. Please note that a codon-optimized and oocyte-adapted version of PfCRT^Dd2 was used[22] (Supplementary Fig. 16). The resulting DNA fragment was cloned into the SP64T expression vector and verified by sequencing.
(§2) Oocytes were obtained as described previously. Briefly, adult (>2 years old) female X. laevis frogs (NASCO) were anesthetized in a cooled solution of ethyl 3-amino benzoate methanesulfonate (0.1%, w/v), followed by a surgical removal of parts of the ovary. The ovary lobes were carefully dissected and small pieces of oocytes were incubated in Ca^2+-free ND96 buffer (96 mM NaCl, 2 mM KCl, 1 mM MgCl2 buffered with 5 mM HEPES/NaOH, pH 7.5) supplemented with collagenase D (0.1%, w/v; Roche), BSA (0.5%, w/v), and 9 mm Na2HPO4 at 18 °C for 14-16 h while gentle shaking. After incubation, the oocytes were carefully washed several times with ND96 buffer (96 mM NaCl, 2 mM KCl, 1.8 mM CaCl2, 1 mM MgCl2 buffered with 5 mM HEPES/NaOH, pH 7.5) supplemented with 100 mg l^−1 gentamycin). Defolliculated and healthy-looking stage V-VI oocytes were manually selected for RNA microinjection. The RNA was generated as following: The codon-optimized sequences of PfCRT variants were cloned into the pSP64T expression vector. After vector linearization using the restriction endonucleases BamHI or SalI (New England Biolabs), transcription was performed using the in vitro SP6 mMessage mMachine Kit (Ambion)[34]. The obtained RNA was kept at −80 °C and diluted with nuclease-free water to a concentration of 0.6 μg μl^−1. Precision-bore glass capillary tubes (3.5-inch glass capillaries; Drummond Scientific Co.) were pulled on a vertical puller (P-87 Flaming/Brown micropipette puller, Sutter Instrument Co.), graduated, and placed on a microinjector (Nanoject II Auto-Nanoliter Injector, Drummond Scientific Co.). 50 nl of nuclease-free water alone (control oocytes) or 50 nl of 0.6 μg μl^−1 RNA were injected under stereomicroscopic control. Injected oocytes were incubated for 46–72 h at 18 °C with twice-daily buffer changes before usage in experiments.
Drug uptake assays were performed as described previously[21],[22],[24],[34]. […] The direction of radio-labeled drug transport is here from the mostly acidic extracellular solution (pH 4.5 or 6.0, as indicated) into the oocyte cytosol (pH ∼ 7.2), which corresponds to the efflux of drug from the acidic digestive vacuole (pH 5.2) into the parasite cytoplasm (pH 7.2). The topology of PfCRT in the oolemma is such that both the N- and C-terminus face the extracellular milieu[3],[22]. In the parasite, the N- and C-terminus face the lumen of the digestive vacuole. […] For determination of the amount of drug uptake for each oocyte, the reaction medium was removed and the oocytes were washed three times with 2 ml of ice-cold ND96 buffer. Each oocyte was individually transferred to a scintillation vial containing 5% sodium dodecyl sulfate (200 μl) for lysis. […] Oocytes that were injected with water instead of RNA were analyzed in parallel, representing the uptake of a drug by diffusion and/or endogenous permeation pathways. The resulting value represents the “background“ level of drug accumulation in oocytes (in-depth discussion in[22]). The specific PfCRT-mediated uptake was determined by subtracting the corresponding background value measured in water-injected oocytes from that of PfCRT-expressing oocytes. In all cases, at least three separate experiments were performed on oocytes from different frogs (biological replicate), and for each condition in an experiment, measurements were made from 10 oocytes per treatment. For pH 5.5, 6.0, and 6.5, ND96 was buffered with 5 mM MES/Tris base.

[2] = tested on: PfCRT variant E207Y; assay: CQ uptake assay, oocytes expressing E207Y; format: cell-based, Plasmodium falciparum
Description: as §1, §2
Drug uptake assays were performed as described previously[21],[22],[24],[34]. […] The direction of radio-labeled drug transport is here from the mostly acidic extracellular solution (pH 4.5 or 6.0, as indicated) into the oocyte cytosol (pH ∼ 7.2), which corresponds to the efflux of drug from the acidic digestive vacuole (pH 5.2) into the parasite cytoplasm (pH 7.2). The topology of PfCRT in the oolemma is such that both the N- and C-terminus face the extracellular milieu[3],[22]. In the parasite, the N- and C-terminus face the lumen of the digestive vacuole. CQ uptake kinetics were performed by incubating oocytes in ND96 buffer adjusted to a pH of 4.5, 5.0, 5.5, or 6.0 and supplemented with 50 nM [^3H]CQ and one of 7 different CQ concentrations (10 µM, 50 µM, 100 µM, 200 µM, 300 µM, 400 µM, 500 µM CQ). The reaction was stopped at the 60 min time point, which is in the linear uptake range[22],[34] (Supplementary Fig. 17). For determination of the amount of drug uptake for each oocyte, the reaction medium was removed and the oocytes were washed three times with 2 ml of ice-cold ND96 buffer. Each oocyte was individually transferred to a scintillation vial containing 5% sodium dodecyl sulfate (200 μl) for lysis. The radioactivity of each sample was measured using a liquid scintillation analyzer Tri-Carb 4910 TR (PerkinElmer). Oocytes that were injected with water instead of RNA were analyzed in parallel, representing the uptake of a drug by diffusion and/or endogenous permeation pathways. The resulting value represents the “background“ level of drug accumulation in oocytes (in-depth discussion in[22]). […]

[3] = E207L, 50 µM CQ, 1 h, mean ± SEM
[4] = pH 4.5, individual replicates, Fig 6b
[5] = pH 6.0, individual replicates, Fig 6b
[6] = ratio of activity pH 4.5 / pH 6.0
[7] = E207Y, 50 µM CQ, 1 h, mean ± SEM

**Q.** How did the “Activity at pH 4.5” value [1, 3] turn out when `CCN(CC)CCCC(C)Nc1ccnc2cc(Cl)ccc12` (stereo not drawn) [CQ, chloroquine] was run?
**A.** The value was 2.10 ± 0.17 pmol h-1 oocyte-1.

**Q.** And the “Activity at pH 6.0” value [1, 3]?
**A.** The value was 2.25 ± 0.22 pmol h-1 oocyte-1.

**Q.** What about the R-value ([1]; E207L, CQ transport at pH 4.5 / pH 6.0) of the same compound?
**A.** The R-value was 0.95 ± 0.04.

**Q.** What about the “E207L transport activity pH 4.5” value [1, 4] of the same compound?
**A.** The value was 2.14 pmol oocyte-1 h-1 and 2.36 pmol oocyte-1 h-1 and 2.37 pmol oocyte-1 h-1 and 1.53 pmol oocyte-1 h-1.

**Q.** What about the “E207L transport activity pH 6.0” value [1, 5] of the same compound?
**A.** Its value is 2.70 pmol oocyte-1 h-1 and 2.35 pmol oocyte-1 h-1 and 1.52 pmol oocyte-1 h-1.

**Q.** What about the “E207L R-value” [1, 6] of the same compound?
**A.** Its value is 0.79 and 1.00 and 0.98 and 1.01.

**Q.** And the “Activity at pH 4.5” value [2, 7]?
**A.** The value was 1.70 ± 0.21 pmol h-1 oocyte-1.

**Q.** What about the “Activity at pH 6.0” value [2, 7] of the same compound?
**A.** The value was 1.84 ± 0.21 pmol h-1 oocyte-1.

**Q.** And the R-value ([2]; E207Y, CQ transport at pH 4.5 / pH 6.0)?
**A.** Its R-value is 0.92 ± 0.06.

**Q.** And the “E207Y transport activity pH 4.5” value [2, 4]?
**A.** The value was 2.50 pmol oocyte-1 h-1 and 1.56 pmol oocyte-1 h-1 and 1.84 pmol oocyte-1 h-1 and 1.50 pmol oocyte-1 h-1 and 1.10 pmol oocyte-1 h-1.

**Q.** What about the “E207Y transport activity pH 6.0” value [2, 5] of the same compound?
**A.** The value was 2.64 pmol oocyte-1 h-1 and 1.70 pmol oocyte-1 h-1 and 1.99 pmol oocyte-1 h-1 and 1.61 pmol oocyte-1 h-1 and 1.24 pmol oocyte-1 h-1.

**Q.** What about the “E207Y R-value” [2, 6] of the same compound?
**A.** The value was 0.95 and 0.92 and 0.93 and 0.89.
